Reference: ChEMBL document CHEMBL1158690, “Characterization of lipophilic pentasaccharides from beach morning glory (Ipomoea pes-caprae)” (2005)

Columns and labels:
Type in all cases: functional
[1] = Cytotoxicity against human colon carcinoma cells; conditions: Colon carcinoma cell, read-out: ED50 (the source's name)
[2] = Cytotoxicity against human nasopharyngeal carcinoma cells; conditions: Nasopharyngeal carcinoma cell, read-out: ED50 (the source's name)
[3] = Cytotoxicity against human squamous cervical carcinoma cells; conditions: read-out: ED50 (the source's name)
[4] = Cytotoxicity against human ovarian carcinoma cells; conditions: Ovarian carcinoma cell, read-out: ED50 (the source's name)

Measured: EC50

CCCCCCCCCCCC(=O)O[C@H]1[C@H](O[C@@H]2[C@H]3OC(=O)CCCCCCCCC[C@H](CCCCC)O[C@@H]4O[C@H](C)[C@H](O)[C@H](O)[C@H]4O[C@H](O[C@H]2C)[C@@H]3O)O[C@@H](C)[C@H](O[C@@H]2O[C@@H](C)[C@H](OC(=O)[C@@H](C)CC)[C@@H](O)[C@H]2O)[C@H]1O[C@@H]1O[C@@H](C)[C@H](O)[C@@H](O)[C@H]1O [PESCAPREIN III]
5 µg/mL: all assays above

CCCCCCCCCCCC(=O)O[C@H]1[C@H](O[C@@H]2[C@H]3OC(=O)CCCCCCCCC[C@H](CCCCC)O[C@@H]4O[C@H](C)[C@H](O)[C@H](O)[C@H]4O[C@H](O[C@H]2C)[C@@H]3O)O[C@@H](C)[C@H](O[C@@H]2O[C@@H](C)[C@H](OC(=O)C(C)C)[C@@H](O)[C@H]2O)[C@H]1O[C@@H]1O[C@@H](C)[C@H](O)[C@@H](O)[C@H]1O [PESCAPREIN II]
5 µg/mL: all assays above

CCCCCCCCCCCC(=O)O[C@H]1[C@H](O[C@@H]2[C@H]3OC(=O)CCCCCCCCC[C@H](CCCCC)O[C@@H]4O[C@H](C)[C@H](O)[C@H](O)[C@H]4O[C@H](O[C@H]2C)[C@@H]3O)O[C@@H](C)[C@H](O[C@@H]2O[C@@H](C)[C@H](OC(=O)CCCCC)[C@@H](O)[C@H]2O)[C@H]1O[C@@H]1O[C@@H](C)[C@H](O)[C@@H](O)[C@H]1O [PESCAPREIN IV]
5 µg/mL: all assays above

CCCCCCCCCCCC(=O)O[C@H]1[C@H](O[C@@H]2[C@H]3OC(=O)CCCCCCCCC[C@H](CCCCC)O[C@@H]4O[C@H](C)[C@H](O)[C@H](O)[C@H]4O[C@H](O[C@H]2C)[C@@H]3O)O[C@@H](C)[C@H](O[C@@H]2O[C@@H](C)[C@H](O)[C@@H](O)[C@H]2O)[C@H]1O[C@@H]1O[C@@H](C)[C@H](O)[C@@H](O)[C@H]1O [PESCAPREIN I]
5 µg/mL: all assays above

CCCCCCCCCCCC(=O)O[C@H]1[C@H](O[C@@H]2[C@@H](O)[C@@H](O)[C@H](O[C@H]3[C@H](O[C@@H](CCCCC)CCCCCCCCCC(=O)OC)O[C@H](C)[C@H](O)[C@@H]3O)O[C@H]2C)O[C@@H](C)[C@H](O[C@@H]2O[C@@H](C)[C@H](O)[C@@H](O)[C@H]2O)[C@H]1O[C@@H]1O[C@@H](C)[C@H](O)[C@@H](O)[C@H]1O [PESCAPROSIDE A]
5 µg/mL: all assays above

CCCCCCCCCC(=O)O[C@H]1[C@H](O[C@@H]2[C@H]3OC(=O)CCCCCCCCC[C@H](CCCCC)O[C@@H]4O[C@H](C)[C@H](O)[C@H](O)[C@H]4O[C@H](O[C@H]2C)[C@@H]3O)O[C@@H](C)[C@H](O[C@@H]2O[C@@H](C)[C@H](OC(=O)[C@@H](C)CC)[C@@H](O)[C@H]2O)[C@H]1O[C@@H]1O[C@@H](C)[C@H](O)[C@@H](O)[C@H]1O [STOLONIFERIN III]
5 µg/mL: all assays above
